# Patent US20080161249A1, “Use of Novel Antibacterial Compounds” (SMITHKLINE BEECHAM CORPORATION, priority 2004, published 2008)
# Tests used:
# S. aureus strain PK1 = test: MIC against S. aureus strain PK1, alone and in combination; format: cell-based, Staphylococcus aureus
# Description: (§1) Subinhibitory Concentrations of PDF Inhibitors Decrease the MICs of Macrolides against Representative S. aureus Strains
# (§2) Subinhibitory Concentrations of Macrolides Decrease the MICs of PDF Inhibitors against Representative S. aureus Strains
# S. aureus strain Smith = test: MIC against S. aureus strain Smith, alone and in combination; format: cell-based, Staphylococcus aureus
# [1] = test system: representative S. aureus strains; test: MIC against representative S. aureus strains, summary over strains; format: cell-based, Staphylococcus aureus; details: text summary of Example 5
# Description: as §1, §2
# S. aureus strain Oxford = test: MIC against S. aureus strain Oxford, alone and in combination; format: cell-based, Staphylococcus aureus
# Description: as §1, §2
# S. aureus strain RN4220 = test: MIC against S. aureus strain RN4220, alone and in combination; format: cell-based, Staphylococcus aureus
# S. aureus WCUH29 = test: MIC against S. aureus WCUH29, alone and with subinhibitory concentrations of a second agent; format: cell-based, Staphylococcus aureus
# H. influenzae Q1 = test: MIC against H. influenzae Q1, alone and with subinhibitory concentrations of a second agent; format: cell-based, Haemophilus influenzae;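 further: combinations paired PDF inhibitors with macrolides, one class added below its own MIC to test whether the MIC of the other class dropped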
# [2] = Staphylococcus aureus, macrolide alone, read-out: MIC, −Compound (1a)
# [3] = S. aureus WCUH29, +0.5 ug/mL Compound (1a)
# [4] = S. aureus WCUH29, +1 ug/mL Compound (1a)
# [5] = H. influenzae Q1, +0.5 ug/mL Compound (1a)
# [6] = H. influenzae Q1, +1 ug/mL Compound (1a)
smiles,measurement,setting,value
"CC[C@H]1OC(=O)C[C@@H](O)[C@H](C)[C@@H](O[C@@H]2O[C@H](C)[C@@H](O[C@H]3C[C@@](C)(O)[C@@H](O)[C@H](C)O3)[C@H](N(C)C)[C@H]2O)[C@@H](CC=O)C[C@@H](C)C(=O)/C=C/C(C)=C/[C@@H]1CO[C@@H]1O[C@H](C)[C@@H](O)[C@@H](OC)[C@H]1OC [Tylosin, tylosin]",MIC,S. aureus strain PK1; [2],2 µg/mL
same,"MIC, +Compound (1a) [¼ × MIC]",S. aureus strain PK1; with ¼ × MIC of Compound (1a),0.25 µg/mL
same,"fold decrease MIC, +Compound (1a) [¼ × MIC]",S. aureus strain PK1; with ¼ × MIC of Compound (1a),[8] fold
same,"MIC, +Compound (1a) [½ × MIC]",S. aureus strain PK1; with ½ × MIC of Compound (1a),0.06 µg/mL
same,"fold decrease MIC, +Compound (1a) [½ × MIC]",S. aureus strain PK1; with ½ × MIC of Compound (1a),[32] fold
same,MIC,S. aureus strain Smith; [2],1 µg/mL
same,"MIC, +Compound (1a) [¼ × MIC]",S. aureus strain Smith; with ¼ × MIC of Compound (1a),0.25 µg/mL
same,"fold decrease MIC, +Compound (1a) [¼ × MIC]",S. aureus strain Smith; with ¼ × MIC of Compound (1a),[4] fold
same,"MIC, +Compound (1a) [½ × MIC]",S. aureus strain Smith; with ½ × MIC of Compound (1a),0.125 µg/mL
same,"fold decrease MIC, +Compound (1a) [½ × MIC]",S. aureus strain Smith; with ½ × MIC of Compound (1a),[8] fold
same,decrease of MIC by subinhibitory concentrations of Compound (1a),[1],4-32 fold
same,MIC,S. aureus strain Oxford; [2],0.5 µg/mL
same,"MIC, +Compound (1a) [¼ × MIC]",S. aureus strain Oxford; with ¼ × MIC of Compound (1a),0.06 µg/mL
same,"fold decrease MIC, +Compound (1a) [¼ × MIC]",S. aureus strain Oxford; with ¼ × MIC of Compound (1a),[8] fold
same,"MIC, +Compound (1a) [½ × MIC]",S. aureus strain Oxford; with ½ × MIC of Compound (1a),0.03 µg/mL
same,"fold decrease MIC, +Compound (1a) [½ × MIC]",S. aureus strain Oxford; with ½ × MIC of Compound (1a),[16] fold
same,MIC,S. aureus strain RN4220; [2],1 µg/mL
same,"fold decrease MIC, +Compound (1a) [¼ × MIC]",S. aureus strain RN4220; with ¼ × MIC of Compound (1a),[8] fold
same,"MIC, +Compound (1a) [½ × MIC]",S. aureus strain RN4220; with ½ × MIC of Compound (1a),0.06 µg/mL
same,"fold decrease MIC, +Compound (1a) [½ × MIC]",S. aureus strain RN4220; with ½ × MIC of Compound (1a),[16] fold
same,"MIC, antibiotic with 0.5 ug/mL (¼ MIC) of Compound (1a)",S. aureus WCUH29; [3],0.25 µg/mL
same,"fold decrease MIC, antibiotic with 0.5 ug/mL (¼ MIC) of Compound (1a)",S. aureus WCUH29; [3],[4] fold
same,"MIC, antibiotic with 1 ug/mL (½ MIC) of Compound (1a)",S. aureus WCUH29; [4],0.125 µg/mL
same,"fold decrease MIC, antibiotic with 1 ug/mL (½ MIC) of Compound (1a)",S. aureus WCUH29; [4],[8] fold
same,"MIC, antibiotic alone","S. aureus WCUH29; S. aureus WCUH29, single agent",1 µg/mL
same,decrease of MIC by subinhibitory concentrations of Compound (1a),"S. aureus WCUH29; S. aureus, Example 3",4-8 fold
same,MIC,"S. aureus WCUH29; Staphylococcus aureus, WCUH29, S. aureus WCUH29, no second agent, read-out: MIC, single agent",1 µg/mL
same,"MIC, antibiotic with 0.5 ug/mL (¼ MIC) of Compound (1a)",H. influenzae Q1; [5],8 µg/mL
same,"fold decrease MIC, antibiotic with 0.5 ug/mL (¼ MIC) of Compound (1a)",H. influenzae Q1; [5],[2] fold
same,"MIC, antibiotic with 1 ug/mL (½ MIC) of Compound (1a)",H. influenzae Q1; [6],4 µg/mL
same,"fold decrease MIC, antibiotic with 1 ug/mL (½ MIC) of Compound (1a)",H. influenzae Q1; [6],[4] fold
same,"MIC, antibiotic alone","H. influenzae Q1; H. influenzae Q1, single agent (Example 7)",16 µg/mL
same,decrease of MIC by subinhibitory concentrations of Compound (1a),"H. influenzae Q1; H. influenzae, text summary of Example 7",2-4 fold
